Test results reported in paper PMC8811960, “A Novel 2-Carbon-Linked Dimeric Artemisinin With Potent Antileukemic Activity and Favorable Pharmacology” (Frontiers in Oncology, 2022).

Columns and labels:
MOLM14 cells = assay: Total cellular ROS (CM-H2DCFDA flow cytometry); type: cell-based, human; settings: MOLM14, 200 nM, 18h
Procedure: […] Cells were then treated with ART631 (200 nM) or DMSO control for 18h, with subsequent analysis by flow cytometry. Western blotting and quantitative reverse transcription PCR (qRT-PCR) to assess for molecular markers of ROS-mediated apoptosis were performed as previously described ([20]).
Figure 4 ART631 elevated ROS and CHOP levels and reduced MCL1 expression in MOLM14 AML cells. […] They were then analyzed by flow cytometry. Graph represents %CM-H2DCFDA fluorescence compared to vehicle (DMSO) control treated cells. Error bars represent SD from 3 independent experiments. (B) MOLM14 AML cells were treated for 18h with vehicle, AS (10 uM), ART838 (200 nM), ART631 (200 nM), cytarabine (AraC; 150 nM), or SOR (5 uM). Protein was isolated and western blotted for MCL1, BCL2, CHOP, and β-actin. (C) MOLM14 cells were treated as in (B) for 18h, total RNA isolated, cDNA synthesized, and SYBR Green qRT-PCR performed in triplicates. Ct values were normalized to housekeeping gene GAPDH and fold change shown relative to vehicle (DMSO) control. Error bars represent SD from 3 independent experiments done in triplicate.

ML2 = assay: alamarBlue growth inhibition, ML2; type: cell-based; settings: Homo sapiens, ML-2, ML2, 48h, mean of 2 independent assays ± SD
Procedure: Cytotoxicity was assessed using alamarBlue assays (Life Technologies, Grand Island, NY) following manufacturer’s guidelines. Cell death was verified by Annexin V/7-aminoactinomycin D (7AAD) staining (BioLegend, San Diego, CA) per manufacturer’s guidelines.

MV4;11 AML xenografts = assay: luc-labeled MV4;11 AML cell line xenograft; type: in vivo, NRG mice; settings: MV4;11 xenograft, 15 mg/kg/d PO, 5 days on, 9 days off, 5 cycles
Source text: (§1) Immunodeficient NOD-Rag1^nullIL2rg^null (NRG) mice were purchased from Jackson Laboratory (Bar Harbor, ME), bred and housed at the University of Maryland Baltimore. Similar to our previous publication ([20]). mice were transplanted IV with luc-labeled human AML cell lines or cryopreserved AML patient cells on day -10, and baseline total body luminescence was quantified on day 0 by Xenogen bioluminescence imaging (Xenogen IVIS Spectrum; PerkinElmer, Waltham, MA). Mice were allocated to treatment groups so that each group had similar average day 0 luminescence, then groups were administered drugs per oral (PO; gavage). Luminescence of each mouse was assessed over time and compared with that mouse’s day 0 luminescence (fold-change AML burden). Clinical behavior, appearance, weight, and survival were also monitored.
(§2) Using our previously determined 5-day MTD SAV drug schedule (i.e. 5-day treatment cycles consisting of 15 mg/kg/d ART631 combined with 150 mg/kg/d VEN and 30 mg/kg/d SOR, followed by 9 days off drug; schematic in Figure 7A ), we assessed treatment of established human luc-labeled MV4;11 ( Figures 7B–D ) and MOLM14 AML ( Figures 8A–C ) cell line xenografts with VEN plus SOR plus ART631 in NRG mice ( Figures 7B , 8A ). […]

MOLM14 AML xenografts = assay: luc-labeled MOLM14 AML cell line xenograft; type: in vivo, NRG mice; settings: 15 mg/kg/d PO, 5 days on, 9 days off, 5 cycles
Source text: as §1, §2

In the case of `C=CCO/N=C(/C[C@H]1O[C@@H]2O[C@@]3(C)CC[C@H]4[C@H](C)CC[C@@H]([C@H]1C)[C@@]24OO3)[C@H]1O[C@@H]2O[C@@]3(C)CC[C@H]4[C@H](C)CC[C@@H]([C@H]1C)[C@@]24OO3` [ART631], the “total cellular ROS levels” value (MOLM14 cells) is reported as “substantially increased”, the IC50 (ML2) is reported as 34 ± 4 nM and the “antileukemic activity of monotherapy” value (MV4;11 AML xenografts) is reported as “no activity”. The “antileukemic activity of monotherapy” value (MOLM14 AML xenografts) was “no activity”.
